Results published in patent US20040204457A1, “Use of (+)-alpha-(2,3-dimethoxyphenyl)-1-[2-(4-fluorophenyl)ethyl]-4- piperidinemethanol or its prodrug in the treatment of symptoms of dementia and dopamine induced psychosis” (Aventis Pharmaceuticals Inc., priority 2000, published 2004).

Legend:
social memory = social memory test in mice (duration of social interaction, baseline vs retest); assay type: in vivo; conditions: 0.1 and 1 mg/kg
Description: Male CD-1 mice (30-35 grams) were first acclimated to the test room for approximately 1 hour. […] For the baseline test, unfamiliar pairs of mice were placed into a test chamber (plexiglas mouse cage with sawdust bedding). The duration of social interaction of the two mice (sniffing, anogenital exploration, nosing, grooming, licking, pawing, playing copulatory attempts) was observed and recorded for a period of five minutes and was registered cumulatively as total seconds of contact. Twenty-four hours later, the animals were given a retest without any drug treatment. At the retest, the now familiar partners from the baseline test were placed into the test chamber for a second confrontation and the duration of social interaction was again measured. Social memory was defined as a significant decrease in duration of social contact from baseline to retest. Testing took place in normal white light conditions between the hours of 8:30 am and 3:00 pm. The experimenter was blind to the treatment group until the completion of the experiment. The results represent combined data (n=36 per group total) from two studies. Data were analyzed using the Mann-Whitney test.

[1] = test system: scopolamine-stimulated locomotion; assay: scopolamine-stimulated locomotion in rats (60 min activity counts); assay type: in vivo, rat; conditions: for antagonism of scopolamine-stimulated locomotion: 0.03-1 mg/kg
Description: Cholinergic deficiency states include various neurodegenerative diseases such as Alzheimer's disease, Dementia with Lewy Bodies, Charles Bonnet Syndrome, delirium and Parkinson's disease. Experimental Procedure. All procedures were conducted in normal white light conditions. Rats (1 per box) were first acclimated to test boxes (45×22×20 cm; clear polycarbonate with a plastic top) for 90 minutes. […] Testing commenced immediately. […] Each interruption of a photoelectric light beam was recorded as a single activity count by a microprocessor-based control system. Testing took place between 10:00 a.m. and 5:00 p.m., with all groups counterbalanced for time of testing. The experimenter was blind to treatment group during the experiment.

Compound | effect on social memory (social memory) | antagonism of scopolamine-stimulated locomotion [1] | Group mean of 60 min activity count totals ([1]; M100907 0.03 + SCOP 0.75, intraperitoneal, n=6) | Group mean of 60 min activity count totals ([1]; M100907 0.1 + SCOP 0.75, intraperitoneal, n=6) | Group mean of 60 min activity count totals ([1]; M100907 0.3 + SCOP 0.75, intraperitoneal, n=6) | Group mean of 60 min activity count totals ([1]; M100907 1 + SCOP 0.75, intraperitoneal, n=6) | Group mean of 60 min activity count totals ([1]; risperidone 0.03 + SCOP 0.75, intraperitoneal, n=8) | Group mean of 60 min activity count totals ([1]; risperidone 0.1 + SCOP 0.75, intraperitoneal, n=8) | Group mean of 60 min activity count totals ([1]; risperidone 0.3 + SCOP 0.75, intraperitoneal, n=8) | Group mean of 60 min activity count totals ([1]; risperidone 1 + SCOP 0.75, intraperitoneal, n=8) | activity level relative to baseline (vehicle) level ([1]; risperidone at the two higher doses + scopolamine)
COc1cccc([C@H](O)C2CCN(CCc3ccc(F)cc3)CC2)c1OC [M100907, (+)-isomer of α-(2,3-dimethoxyphenyl)-1-[2-(4-fluorophenyl)ethyl]-4-piperidinemethanol] | significantly enhanced | significantly antagonized | 3181 | 2378 | 2087 | 2231 |  |  |  |  | 
Cc1nc2n(c(=O)c1CCN1CCC(c3noc4cc(F)ccc34)CC1)CCCC2 [risperidone] |  | significantly antagonized |  |  |  |  | 4615 | 4037 | 1795 | 772 | reduced activity below baseline level
